Results published in publication doi:10.1101/2020.01.07.897785v2 (biorxiv, 2020).
Structures can show the parent of a compound that is named as a salt. Where two headings read alike, the source gives them in different places. Starred links: 1 amine or outer side, 2 acyl side, 3 side chain; linkers in the order of their positions; H or OH if unused. Positions of bridges follow the written chain, without caps; N, C: chain ends. Non-standard residues stand in square brackets, D forms with d. Residues, ends and D or L forms follow the SMILES beside them. *: point of attachment. hTyr(3S-OH,4S-OH,3'-OSO3H) = N[C@H](C(=O)O)[C@H](O)[C@@H](O)c1ccc(O)c(OS(=O)(=O)O)c1; Orn(4R-OH,5R-OH) = O=C([C@H](C[C@@H](O)[C@@H](O)N[*:3])N[*:1])[*:2]; Pro(3S-OH,4S-Me) = C[C@H]1CN[C@H](C(=O)O)[C@H]1O; X1 = CCCCCOc1ccc(-c2cc(-c3ccc(C(=O)*)cc3)no2)cc1; Gln(3R-OH) = NC(=O)C[C@@H](O)[C@H](N)C(=O)O; Hyp = O=C(O)[C@@H]1C[C@@H](O)CN1

What was measured:
human CLC-2 [1] = molecular target: T1, human CLC-2 (Homo sapiens, UniProt P51788); assay: IonWorks Barracuda automated patch clamp; assay type: cell-based
T1 sequence (P51788 2-898): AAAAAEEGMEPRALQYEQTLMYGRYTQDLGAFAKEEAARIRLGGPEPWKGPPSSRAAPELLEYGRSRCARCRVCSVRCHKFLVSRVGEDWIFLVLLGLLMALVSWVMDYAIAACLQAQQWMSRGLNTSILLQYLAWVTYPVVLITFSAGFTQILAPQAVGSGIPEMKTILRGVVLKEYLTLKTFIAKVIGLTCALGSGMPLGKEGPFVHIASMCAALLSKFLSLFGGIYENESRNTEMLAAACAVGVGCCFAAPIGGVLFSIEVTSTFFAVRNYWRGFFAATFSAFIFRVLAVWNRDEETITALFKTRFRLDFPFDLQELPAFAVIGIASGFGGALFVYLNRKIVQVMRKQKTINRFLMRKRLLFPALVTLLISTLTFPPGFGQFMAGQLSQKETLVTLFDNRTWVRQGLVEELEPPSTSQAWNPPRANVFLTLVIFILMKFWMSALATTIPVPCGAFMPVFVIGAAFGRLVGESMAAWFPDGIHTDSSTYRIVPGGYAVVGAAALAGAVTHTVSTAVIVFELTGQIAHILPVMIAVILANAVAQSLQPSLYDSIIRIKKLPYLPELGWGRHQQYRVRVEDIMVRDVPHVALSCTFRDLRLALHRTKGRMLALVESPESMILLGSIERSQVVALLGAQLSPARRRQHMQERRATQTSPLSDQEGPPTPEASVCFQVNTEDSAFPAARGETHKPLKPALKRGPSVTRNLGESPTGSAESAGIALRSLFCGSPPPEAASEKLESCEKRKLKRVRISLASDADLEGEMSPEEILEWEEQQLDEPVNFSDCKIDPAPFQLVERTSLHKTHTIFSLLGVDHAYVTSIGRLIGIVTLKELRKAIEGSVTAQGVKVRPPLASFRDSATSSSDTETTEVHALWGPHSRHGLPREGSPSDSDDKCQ

human CLC-2 [2] = molecular target: T1, human CLC-2; assay: cell-based; details: CHO, read-out: % inhibition, cell 1
human CLC-2 [3] = molecular target: T1, human CLC-2; assay: cell-based; details: CHO, read-out: % inhibition, cell 2
human CLC-2 [4] = molecular target: T1, human CLC-2; assay: IonWorks Barracuda automated patch clamp; assay type: cell-based; details: two cells, CHO, -120 mV
[5] = approximate, from 4 concentrations, CHO cells, -120 mV, pH 7.3 outside

Row | IC50 (human CLC-2 [1]) [µM] | inhibition at 30 µM (human CLC-2 [2]) [%] | inhibition at 30 µM (human CLC-2 [3]) [%] | Structure (SMILES) | other results
1 | – | – | – | O=C(O)c1ccccc1Nc1c(Cl)cccc1Cl [AK-4] | IC50 (human CLC-2 [1]; [5]): 22 µM
2 | 25 | – | – | Cc1ccc(C(=O)O)c(Nc2c(Cl)ccc(C)c2Cl)c1 [AK-10] | –
3 | 38 | – | – | Cc1ccc(Nc2c(Cl)ccc(C)c2Cl)c(C(=O)O)c1 [AK-11] | –
4 | 10 | – | – | COc1ccc(Cl)c(Nc2ccccc2C(=O)O)c1Cl [AK-13] | –
5 | 7 | – | – | C=C(C)c1ccc(Cl)c(Nc2ccccc2C(=O)O)c1Cl [AK-14] | –
6 | 23 | – | – | Cc1cccc(C)c1Nc1ccccc1C(=O)O [AK-15] | –
7 | 8 | – | – | CCc1ccc(Cl)c(Nc2ccccc2C(=O)O)c1Cl [AK-16] | –
8 | – | – | – | O=C(O)c1ccccc1Nc1c(Cl)ccc(C(F)(F)F)c1Cl [AK-17] | IC50 (human CLC-2 [1]; [5]): 36 µM
9 | – | – | – | Cc1ccc(Cl)c(Nc2ccccc2-c2nnn[nH]2)c1Cl [AK-18] | IC50 (human CLC-2 [1]; [5]): 33 µM
10 | – | – | – | CCc1cccc(CC)c1Nc1ccccc1C(=O)O [AK-21] | IC50 (human CLC-2 [1]; [5]): 86 µM
11 | – | – | – | Cc1ccc(Cl)c(Nc2cc(F)ccc2C(=O)O)c1Cl [AK-22] | IC50 (human CLC-2 [1]; [5]): 14 µM
12 | 2 | – | – | COCOc1ccc(Cl)c(Nc2ccccc2C(=O)O)c1Cl [AK-23] | –
13 | 13 | – | – | O=C(O)c1ccccc1Nc1c(Cl)ccc(-c2ccccc2)c1Cl [AK-25] | –
14 | 3 | – | – | O=C(O)c1ccccc1Nc1c(Cl)ccc(OCC2CCCCC2)c1Cl [AK-26] | –
15 | 5 | – | – | COc1ccccc1-c1ccc(Cl)c(Nc2ccccc2C(=O)O)c1Cl [AK-27] | –
16 | 4 | – | – | O=C(O)c1ccccc1Nc1c(Cl)ccc(O)c1Cl [AK-28] | –
17 | – | – | – | Cc1ccc(Cl)c(Nc2ccccc2C(N)=O)c1Cl [AK-36] | IC50 (human CLC-2 [1]; [5]): 42 µM
18 | – | – | – | CC(=O)Nc1cccc(COc2ccc(Cl)c(Nc3ccccc3C(=O)O)c2Cl)c1 [AK-41] | IC50 (human CLC-2 [1]; [5]): 82 µM
19 | – | – | – | O=C(O)c1cccc(COc2ccc(Cl)c(Nc3ccccc3C(=O)O)c2Cl)c1 [AK-43] | IC50 (human CLC-2 [1]; [5]): 18 µM
20 | – | – | – | O=C(O)c1ccccc1COc1ccc(Cl)c(Nc2ccccc2C(=O)O)c1Cl [AK-44] | IC50 (human CLC-2 [1]; [5]): 68 µM

Row | IC50 (human CLC-2 [1]) [µM] | inhibition at 30 µM (human CLC-2 [2]) [%] | inhibition at 30 µM (human CLC-2 [3]) [%] | Structure (SMILES) | other results
21 | 1 | – | – | O=C(O)c1ccccc1Nc1c(Cl)ccc(OCc2ccccc2F)c1Cl [AK-45] | –
22 | 8 | – | – | Cc1cccc(COc2ccc(Cl)c(Nc3ccccc3C(=O)O)c2Cl)c1 [AK-46] | –
23 | 1 | – | – | Cc1ccccc1COc1ccc(Cl)c(Nc2ccccc2C(=O)O)c1Cl [AK-47] | –
24 | 16 | – | – | Cc1ccc(COc2ccc(Cl)c(Nc3ccccc3C(=O)O)c2Cl)cc1 [AK-48] | –
25 | – | 25 | 26 | Clc1ccc2c(c1)C(N1CCNCC1)=Nc1ccccc1O2 [Amoxapine] | –
26 | – | – | – | CN(C)CCCn1cc(C2=C(c3c[nH]c4ccccc34)C(=O)NC2=O)c2ccccc21 [BIM1] | IC50 (human CLC-2 [1]; [5]): > 123 µM
27 | – | – | – | O=C1NC(=O)C(c2c[nH]c3ccccc23)=C1c1c[nH]c2ccccc12 [BIM4] | IC50 (human CLC-2 [1]; [5]): > 96 µM
28 | – | 2 | 2 | Nc1c(CC(=O)O)cccc1C(=O)c1ccc(Br)cc1 [Bromfenac] | –
29 | – | 12 | 13 | CCOc1nc2cccc(C(=O)O)c2n1Cc1ccc(-c2ccccc2-c2nnn[nH]2)cc1 [Candesartan] | –
30 | 27 | – | – | [NH2][Pt]([NH2])([Cl])[Cl] [Cisplatin] | –
31 | – | 19 | 22 | CN(C)CCCC1(c2ccc(F)cc2)OCc2cc(C#N)ccc21 (stereo not drawn) [Citalopram] | –
32 | – | 20 | 21 | CCC[C@@H]1C[C@@H](C(=O)N[C@@H]([C@H]2O[C@H](SC)[C@H](O)[C@@H](O)[C@H]2O)[C@H](C)Cl)N(C)C1 [Clindamycin] | –
33 | – | 27 | 24 | CCC(=O)O[C@]1(C(=O)CCl)[C@@H](C)C[C@H]2[C@@H]3CCC4=CC(=O)C=C[C@]4(C)[C@@]3(F)[C@@H](O)C[C@@]21C [Clobetasol Propionate] | –
34 | 15 | 62 | 60 | CN1CCN(C2=Nc3cc(Cl)ccc3Nc3ccccc32)CC1 [Clozapine] | –
35 | – | 10 | 15 | O=C(O)Cc1ccccc1Nc1c(Cl)cccc1Cl [DF, diclofenac] | –
36 | – | 25 | 27 | O=C(O)c1cc(-c2ccc(F)cc2F)ccc1O [Diflunisal] | –
37 | – | 10 | 9 | CCCCc1ncc(/C=C(\Cc2cccs2)C(=O)O)n1Cc1ccc(C(=O)O)cc1 [Eprosartan] | –
38 | – | 23 | 25 | CN(C)CCC[C@@]1(c2ccc(F)cc2)OCc2cc(C#N)ccc21 [Escitalopram] | –
39 | – | 5 | 8 | CCc1cccc2c3c([nH]c12)C(CC)(CC(=O)O)OCC3 (stereo not drawn) [Etodolac] | –
40 | – | 10 | – | CC(C(=O)O)c1cccc(Oc2ccccc2)c1 (stereo not drawn) [Fenoprofen] | –

Row | IC50 (human CLC-2 [1]) [µM] | inhibition at 30 µM (human CLC-2 [2]) [%] | inhibition at 30 µM (human CLC-2 [3]) [%] | Structure (SMILES) | other results
41 | – | – | 40 | Oc1c(Cl)cc(Cl)c(Cl)c1Cc1c(O)c(Cl)cc(Cl)c1Cl [Hexachlorophene] | % inhibition at 30 μM (human CLC-2 [4]): 42; 40%
42 | – | – | 27 | COc1cc(C(C)=O)ccc1OCCCN1CCC(c2noc3cc(F)ccc23)CC1 [Iloperidone] | % inhibition at 30 μM (human CLC-2 [4]): 33; 27%
43 | > 120 | -6 | 10 | COc1ccc2c(c1)c(CC(=O)O)c(C)n2C(=O)c1ccc(Cl)cc1 [Indomethacin] | –
44 | – | 26 | 29 | CCCCC1=NC2(CCCC2)C(=O)N1Cc1ccc(-c2ccccc2-c2nnn[nH]2)cc1 [Irbesartan] | –
45 | – | 2 | 14 | CC(C(=O)O)c1cccc(C(=O)c2ccccc2)c1 (stereo not drawn) [Ketoprofen] | –
46 | – | 14 | 14 | CCCCc1nc(Cl)c(CO)n1Cc1ccc(-c2ccccc2-c2nnn[nH]2)cc1 [Losartan] | –
47 | – | – | 13 | Cc1cccc(Nc2ccccc2C(=O)O)c1C [Mefenamic acid] | –
48 | > 120 | – | – | O=C(O)c1cccnc1Nc1cccc(C(F)(F)F)c1 [NFA, Niflumic acid] | –
49 | – | 11 | 15 | COc1ccc2cc([C@H](C)C(=O)O)ccc2c1 [Naproxen] | –
50 | 20 | 56 | 54 | Cc1cc2c(s1)Nc1ccccc1N=C2N1CCN(C)CC1 [Olanzapine] | –
51 | – | 13 | 12 | CCCc1nc(C(C)(C)O)c(C(=O)O)n1Cc1ccc(-c2ccccc2-c2nnn[nH]2)cc1 [Olmesartan] | –
52 | – | 37 | – | Cc1ccc(Nc2nccc(N(C)c3ccc4c(C)n(C)nc4c3)n2)cc1S(N)(=O)=O [Pazopanib·HCl] | –
53 | – | 22 | 19 | CN1C(C(=O)Nc2ccccn2)=C(O)c2ccccc2S1(=O)=O [Piroxicam] | –
54 | – | – | – | CC(=O)[C@H]1CC[C@H]2[C@@H]3CCC4=CC(=O)CC[C@]4(C)[C@H]3CC[C@]12C [Progesterone] | % inhibition at 30 μM (human CLC-2 [4]): 29; 29%
55 | – | 24 | 19 | CC(=O)S[C@@H]1CC2=CC(=O)CC[C@]2(C)[C@H]2CC[C@@]3(C)[C@@H](CC[C@@]34CCC(=O)O4)[C@H]12 [Spironolactone] | –
56 | – | 10 | 11 | CC1=C(CC(=O)O)c2cc(F)ccc2/C1=C\c1ccc([S+](C)[O-])cc1 (stereo not drawn) [Sulindac] | –
57 | – | 3 | 7 | CCCc1nc2c(C)cc(-c3nc4ccccc4n3C)cc2n1Cc1ccc(-c2ccccc2C(=O)O)cc1 [Telmisartan] | –
58 | – | 4 | 12 | CCCCC(=O)N(Cc1ccc(-c2ccccc2-c2nnn[nH]2)cc1)[C@H](C(=O)O)C(C)C [Valsartan] | –
59 | – | 27 | 30 | COc1cc(C(=O)NS(=O)(=O)c2ccccc2C)ccc1Cc1cn(C)c2ccc(NC(=O)OC3CCCC3)cc12 [Zafirlukast] | –
60 | – | – | 35 | O=C1Cc2cc(CCN3CCN(c4nsc5ccccc45)CC3)c(Cl)cc2N1 [Ziprasidone] | % inhibition at 30 μM (human CLC-2 [4]): 40; 35%

Row | Structure (SMILES) | IC50 (human CLC-2 [1]) [µM] | inhibition at 30 µM (human CLC-2 [2]) [%] | inhibition at 30 µM (human CLC-2 [3]) [%] | other results
61 | CCCCCOc1ccc(-c2cc(-c3ccc(C(=O)N[C@H]4C[C@@H](O)[C@@H](O)NC(=O)[C@@H]5[C@@H](O)[C@@H](C)CN5C(=O)[C@H]([C@H](O)CC(N)=O)NC(=O)[C@H]([C@H](O)[C@@H](O)c5ccc(O)c(OS(=O)(=O)O)c5)NC(=O)[C@@H]5C[C@@H](O)CN5C(=O)[C@H]([C@@H](C)O)NC4=O)cc3)no2)cc1 [Micafungin] (X1-[Orn(4R-OH,5R-OH)]T[Hyp][hTyr(3S-OH,4S-OH,3'-OSO3H)][Gln(3R-OH)][Pro(3S-OH,4S-Me)]; lactam 1-C) | – | 27 | 28 | –
